Reference: patent US11274124B2, “Tubulysin analogues as anticancer agents and payloads for antibody-drug conjugates and methods of treatment therewith” (William Marsh Rice University, priority 2017, dated 2022)
Where two headings read alike, the source gives them in different places.

Experiments:
[1] = test system: MES SA (uterine sarcoma cell line); assay: In vitro cytotoxicity assay (CellTiter-Glo, 72 hours), MES SA; format: cell-based
[2] = test system: MES SA DX (MES SA cell line with marked multi-drug resistance); assay: In vitro cytotoxicity assay (CellTiter-Glo, 72 hours), MES SA DX
[3] = test system: HEK 293T (human embryonic kidney cancer cell line); assay: In vitro cytotoxicity assay (CellTiter-Glo, 72 hours), HEK 293T; format: cell-based
[4] = Homo sapiens, MES-SA, 72 h, read-out: MES SA, IC50 Value in nM
[5] = Homo sapiens, MES-SA, 72 h, read-out: MES SA DX, IC50 Value in nM
[6] = Homo sapiens, HEK-293T, 72 h, read-out: HEK 293T, IC50 Value in nM
[7] = Homo sapiens, MES-SA, 72 h, read-out: MES SA, IC50
[8] = Homo sapiens, MES-SA, 72 h, read-out: MES SA DX, IC50
[9] = Homo sapiens, HEK-293T, 72 h, read-out: HEK 293T, IC50

Structure (SMILES) | IC50 [1, 4] [nM] | IC50 [2, 5] [nM] | IC50 [3, 6] [nM] | other results
CC(C)[C@@H](C[C@@H](O)c1nc(C(=O)N[C@@H](Cc2ccccc2)C[C@H](C)C(=O)O)cs1)N(C)C(=O)[C@H](CC(F)(F)F)NC(=O)[C@H]1CCCCN1C [Tb83, (2S,4R)-4-[({2-[(1R,3R)-1-Hydroxy-4-methyl-3-{methyl[(2S)-4,4,4-trifluoro-2-({[(2R)-1-methyl-piperidin-2-yl]carbonyl}amino)butanoyl]amino}pentyl]-1,3-thiazol-4-yl}carbonyl)amino]-2-methyl-5-phenylpentanoic acid] | > 1000 | > 1000 | > 1000 | –
CCCCN1CCCC[C@@H]1C(=O)N[C@H](C(=O)N(C)[C@H](C[C@@H](OC(C)=O)c1nc(C(=O)N[C@@H](Cc2cn(C)c3ccccc23)C[C@H](C)C(=O)OC)cs1)C(C)C)[C@@H](C)CC [Tb57, Methyl (2S,4R)-4-[({2-[(1R,3R)-1-acetoxy-3-{[(2S,3S)-2-({[(2R)-1-butylpiperidin-2-yl]carbonyl}-amino)-3-methylpentanoyl](methyl)amino}-4-methylpentyl]-1,3-thiazol-4-yl}carbonyl)amino]-2-methyl-5-(1-methyl-1H-indol-3-yl)pentanoate] | > 1000 | > 1000 | > 1000 | –
COC(=O)CC12CC(NC(=O)c3csc([C@@H](C[C@H](C(C)C)N(C)C(=O)[C@@H](NC(=O)[C@H]4CCCCN4C)C(C)C)OC(C)=O)n3)(C1)C2 [Tb103, Methyl (3-{[(2-{1-acetoxy-4-methyl-3-[methyl(3-methyl-2-{[(1-methylpiperidin-2-yl)carbonyl]amino}-butanoyl)amino]pentyl}-1,3-thiazol-4-yl)carbonyl]amino}bicyclo[11.1.]pent-1-yl)acetate] | 2.74 | 22.6 | 1.79 | –
CC(C)[C@@H](C[C@@H](O)c1nc(C(=O)N[C@@H](Cc2ccccc2)C[C@H](C)C(=O)O)cs1)N(C)C(=O)[C@H](CC(F)(F)F)NC(=O)[C@H]1CCCN1C [Tb84, (2S,4R)-4-[({2-[(1R,3R)-1-Hydroxy-4-methyl-3-{methyl[(2S)-4,4,4-trifluoro-2-({[(2R)-1-methyl-pyrrolidin-2-yl]carbonyl}amino)butanoyl]amino}pentyl]-1,3-thiazol-4-yl}carbonyl)amino]-2-meth-yl-5-phenylpentanoic acid] | > 1000 | > 1000 | > 1000 | –
COC(=O)[C@@H](C)C[C@H](Cc1ccccc1)NC(=O)c1csc([C@@H](C[C@H](C(C)C)N(C)C(=O)[C@@H](NC(=O)[C@H]2CCCCN2C)C(C(F)(F)F)C(F)(F)F)OC(C)=O)n1 [Tb79, Methyl (2S,4R)-4-[({2-[(1R,3R)-1-acetoxy-4-methyl-3-{methyl[(2S)-4,4,4-trifluoro-2-({[(2R)-1-meth-ylpiperidin-2-yl]carbonyl}amino)-3-(trifluoromethyl)butanoyl]amino}pentyl]-1,3-thiazol-4-yl}carbonyl)amino]-2-methyl-5-phenylpentanoate] | 39.1 | > 1000 | 36.4 | –
CCN[C@@H](C[C@H](Cc1ccccc1)NC(=O)c1csc([C@@H](C[C@H](C(C)C)N(C)C(=O)[C@@H](NC(=O)[C@H]2CCCCN2C)C(C)C)OC(C)=O)n1)C(=O)OC [Tb118, Methyl (2S)-4-{[(2-{1-acetoxy-4-methyl-3-[methyl(3-methyl-2-{[(1-methylpiperidin-2-yl)carbonyl]-amino}butanoyl)amino]pentyl}-1,3-thiazol-4-yl)carbonyl]amino}-2-(ethylamino)-5-phenylpentanoate] | 0.14 | 5.6 | 0.015 | IC50 [1, 7]: 0.14 nM; cytotoxicities against the marked drug resistant cancer cell line MES SA DX (in words) [2]: relatively potent (low nanomolar); IC50 [2, 8]: 5.6 nM; IC50 [3, 9]: 0.015 nM
COC(=O)C12C3C4C1C1C2C3C41NC(=O)c1csc([C@@H](C[C@H](C(C)C)N(C)C(=O)[C@@H](NC(=O)[C@H]2CCCCN2C)C2CC2)OC(C)=O)n1 (stereo partly drawn) [Tb99, Methyl 4-[({2-[(1R,3R)-1-acetoxy-3-{[(2S)-2-cyclopropyl-2-({[(2R)-1-methylpiperidin-2-yl]carbonyl}-amino)acetyl](methyl)amino}-4-methylpentyl]-1,3-thiazol-4-yl}carbonyl)amino]cubane-1-carboxylate] | > 1000 | > 1000 | > 1000 | –
COC(=O)[C@@H](C)C[C@H](Cc1ccccc1)NC(=O)c1csc([C@@H](C[C@H](C(C)C)N(C)C(=O)[C@H](CC(F)(F)F)NC(=O)[C@H]2CCCN2C)OC(C)=O)n1 [Tb82, Methyl (2S,4R)-4-[({2-[(1R,3R)-1-acetoxy-4-methyl-3-{methyl[(2S)-4,4,4-trifluoro-2-({[(2R)-1-methylpyrrolidin-2-yl]carbonyl}amino)butanoyl]amino}pentyl]-1,3-thiazol-4-yl}carbonyl)amino]-2-methyl-5-phenylpentanoate] | 47.5 | > 1000 | 51.6 | –
COC(=O)[C@@H](C)C[C@H](Cc1ccccc1)NC(=O)c1csc([C@@H](C[C@H](C(C)C)N(C)C(=O)[C@H](CC(F)(F)F)NC(=O)[C@H]2CCCCN2C)OC(C)=O)n1 [Tb81, Methyl (2S,4R)-4-[({2-[(1R,3R)-1-acetoxy-4-methyl-3-{methyl[(2S)-4,4,4-trifluoro-2-({[(2R)-1-meth-ylpiperidin-2-yl]carbonyl}amino)butanoyl]amino}pentyl]-1,3-thiazol-4-yl}carbonyl)amino]-2-methyl-5-phenylpentanoate] | 5.84 | > 1000 | 4.98 | –
COC(=O)[C@@H](C)C[C@H](Cc1ccccc1)NC(=O)c1csc([C@@H](C[C@H](C(C)C)N(C)C(=O)[C@H](NC(=O)[C@H]2CCCCN2C)C(C(F)(F)F)C(F)(F)F)OC(C)=O)n1 [Tb85, Methyl(2S,4R)-4-[({2-[(1R,3R)-1-acetoxy-4-methyl-3-{methyl[(2R)-4,4,4-trifluoro-2-({[(2R)-1-meth-ylpiperidin-2-yl]carbonyl}amino)-3-(trifluoromethyl)butanoyl]amino}pentyl]-1,3-thiazol-4-yl}-carbonyl)amino]-2-methyl-5-phenylpentanoate] | 37.3 | > 1000 | 32.4 | –
COC(=O)[C@@H](C)C[C@H](Cc1ccccc1)NC(=O)c1nc([C@@H](C[C@H](C(C)C)N(C)C(=O)[C@@H](NC(=O)[C@H]2C[C@H](O)CCN2C)C(C)C)OC(C)=O)sc1C(C)C [Tb74, Methyl (2S,4R)-4-[({2-[(1R,3R)-1-acetoxy-3-{[(2S)-2-({[(2R,4R)-4-hydroxy-1-methylpiperidin-2-yl]-carbonyl}amino)-3-methylbutanoyl](methyl)amino}-4-methylpentyl]-5-isopropyl-1,3-thiazol-4-yl}-carbonyl)amino]-2-methyl-5-phenylpentanoate] | 5.32 | > 400 | 2.46 | –
CCOC(=O)C(C)CC(Cc1ccccc1)NC(=O)c1nc([C@@H](CC(C(C)C)N(C)C(=O)[C@@H](NC(=O)[C@H]2CCCCN2C)C(C)C)OC(C)=O)sc1CCO (stereo in doubt) [Tb112, Ethyl (2R,4S)-4-[({2-[(1R,3S)-1-acetoxy-4-methyl-3-{methyl[(2S)-3-methyl-2-{[(1-methylpiperidin-2-yl)carbonyl]amino}butanoyl]amino}pentyl]-5-(2-hydroxyethyl)-1,3-thiazol-4-yl}carbonyl)amino]-2-methyl-5-phenylpentanoate] | 0.1 | > 400 | 0.09 | IC50 [1, 7]: 0.1 nM; IC50 [2, 8]: > 400 nM; IC50 [3, 9]: 0.09 nM
COC(=O)[C@@H](C)C[C@H](Cc1ccccc1)NC(=O)c1csc([C@@H](C[C@H](C(C)C)N(C)C(=O)[C@@H](NC(=O)[C@H]2CCCCN2C)C(C)C)OC(C)=O)n1 [Tb32, reference compound] | – | – | – | IC50 ([1]; Table 2, 72 hours, CellTiter-Glo, read-out: MES SA, IC50 Value in nM): 0.012 nM; IC50 ([2]; read-out: MES SA DX, IC50 Value in nM, Table 2, 72 hours, CellTiter-Glo): 1.29 nM; IC50 ([3]; Table 2, 72 hours, CellTiter-Glo, read-out: HEK 293T, IC50 Value in nM): 0.002 nM
CC(=O)O[C@H](C[C@H](C(C)C)N(C)C(=O)[C@H](NC(=O)[C@H]1CCCCN1C)C(C(F)(F)F)C(F)(F)F)c1nc(C(=O)N[C@@H](Cc2ccccc2)C[C@H](C)C(=O)O)cs1 [Tb87, (2S,4R)-4-[({2-[(1R,3R)-1-Acetoxy-4-methyl-3-{methyl[(2R)-4,4,4-trifluoro-2-({[(2R)-1-methyl-piperidin-2-yl]carbonyl}amino)-3-(trifluoromethyl)butanoyl]amino}pentyl]-1,3-thiazol-4-yl}carbonyl)amino]-2-methyl-5-phenylpentanoic acid] | 234 | > 1000 | > 1000 | –
COC(=O)[C@@H](C)C[C@H](Cc1ccccc1)NC(=O)c1csc([C@@H](C[C@H](C(C)C)N(C)C(=O)[C@H](C)NC(=O)[C@H]2CCCN2C)OC(C)=O)n1 [Tb90, Methyl (2S,4R)-4-[({2-[(1R,3R)-1-acetoxy-4-methyl-3-{methyl[(2S)-2-({[(2R)-1-methylpyrrolidin-2-yl]carbonyl}amino)propanoyl]amino}pentyl]-1,3-thiazol-4-yl}carbonyl)amino]-2-methyl-5-phenylpentanoate] | > 1000 | > 1000 | 636 | –
CC(=O)O[C@H](C[C@H](C(C)C)N(C)C(=O)[C@H](C)NC(=O)[C@H]1CCCN1C)c1nc(C(=O)N[C@@H](Cc2ccccc2)C[C@H](C)C(=O)O)cs1 [Tb92, (2S,4R)-4-[({2-[(1R,3R)-1-Acetoxy-4-methyl-3-{methyl[(2S)-2-({[(2R)-1-methylpyrrolidin-2-yl]car-bonyl}amino)propanoyl]amino}pentyl]-1,3-thiazol-4-yl}carbonyl)amino]-2-methyl-5-phenylpentanoic acid] | > 1000 | > 1000 | > 1000 | –
